What was measured:
[1] = target: T1, NAE (heterodimer of APPBP1 and UBA3) (Homo sapiens, UniProt Q8TBC4); assay: Nedd8 conjugation inhibitory activity (AlphaScreen); assay type: biochemical; conditions: purified NAE, GST-UBC12, ATP, Biotin-Nedd8, reaction 90 minutes
T1 construct: amino acids 1 to 463 of human UBA3 protein; made in house; host or cells: Sf9 insect cells (baculovirus co-infection) for NAE; E. coli BL21 (DE3) for GST-UBC12
T1 sequence (Q8TBC4 1-463): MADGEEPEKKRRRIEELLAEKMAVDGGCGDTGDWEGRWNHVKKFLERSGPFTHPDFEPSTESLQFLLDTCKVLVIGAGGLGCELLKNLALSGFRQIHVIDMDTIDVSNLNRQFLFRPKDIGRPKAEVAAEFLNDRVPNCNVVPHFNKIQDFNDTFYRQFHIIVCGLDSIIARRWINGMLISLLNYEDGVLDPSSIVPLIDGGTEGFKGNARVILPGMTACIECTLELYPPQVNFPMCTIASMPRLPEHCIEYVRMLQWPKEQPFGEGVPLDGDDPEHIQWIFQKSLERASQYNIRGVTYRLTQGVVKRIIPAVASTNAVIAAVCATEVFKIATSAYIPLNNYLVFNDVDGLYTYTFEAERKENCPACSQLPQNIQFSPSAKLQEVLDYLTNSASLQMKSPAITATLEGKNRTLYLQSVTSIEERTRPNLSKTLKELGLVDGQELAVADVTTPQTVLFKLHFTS
T1 sequence (Q13564 1-534 partner): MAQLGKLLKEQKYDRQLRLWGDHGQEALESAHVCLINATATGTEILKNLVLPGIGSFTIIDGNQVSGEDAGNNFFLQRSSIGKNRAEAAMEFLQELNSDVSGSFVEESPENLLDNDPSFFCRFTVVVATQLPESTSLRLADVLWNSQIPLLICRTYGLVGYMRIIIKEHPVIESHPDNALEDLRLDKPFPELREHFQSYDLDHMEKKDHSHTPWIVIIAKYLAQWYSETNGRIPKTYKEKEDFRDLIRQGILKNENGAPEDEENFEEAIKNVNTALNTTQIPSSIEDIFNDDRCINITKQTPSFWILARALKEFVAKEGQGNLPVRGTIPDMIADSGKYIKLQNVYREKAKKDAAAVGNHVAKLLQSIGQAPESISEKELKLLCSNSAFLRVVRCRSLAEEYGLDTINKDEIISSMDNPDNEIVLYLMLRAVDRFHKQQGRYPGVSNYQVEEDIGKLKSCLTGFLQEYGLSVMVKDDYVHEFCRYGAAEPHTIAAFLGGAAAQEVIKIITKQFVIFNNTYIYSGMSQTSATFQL

[2] = tested on: human acute T lymphoblastic leukemia CCRF-CEM cell lines; assay: Cell growth inhibition 1 (CellTiter-Glo); assay type: cell-based; conditions: culture with test compound 72 hours

Compound	IC50 [1] [µM]	IC50 [2] [nM]
CS(=O)(=O)c1ccccc1C#Cc1cn([C@@H]2O[C@H](CNS(N)(=O)=O)[C@@H](O)[C@H]2O)c2ncnc(N)c12 [Reference Example 22, 4-Amino-7-[(2R,3R,4S,5R)-3,4-dihydroxy-5-[(sulfamoylamino)methyl]tetrahydrofuran-2-yl]-5-[2-(2-methylsulfonylphenyl)ethynyl]pyrrolo[2,3-d]pyrimidine]	≤ 0.003	–
Nc1ncnc2c1c(C#Cc1c(F)cc(N3CCOCC3)cc1F)cn2[C@@H]1O[C@H](CNS(N)(=O)=O)[C@@H](O)[C@H]1O [Reference Example 23, 4-[4-[2-[4-Amino-7-[(2R,3R,4S,5R)-3,4-dihydroxy-5-[(sulfamoylamino)methyl]tetrahydrofuran-2-yl]pyrrolo[2,3-d]pyrimidin-5-yl]ethynyl]-3,5-difluoro-phenyl]morpholine]	≤ 0.003	–
Nc1cc(F)c(C#Cc2cn([C@@H]3O[C@H](CNS(N)(=O)=O)[C@@H](O)[C@H]3O)c3ncnc(N)c23)c(F)c1 [Reference Example 24, 4-Amino-5-[2-(4-amino-2,6-difluoro-phenyl)ethynyl]-7-[(2R,3R,4S,5R)-3,4-dihydroxy-5-[(sulfamoylamino)methyl]tetrahydrofuran-2-yl]pyrrolo[2,3-d]pyrimidine]	≤ 0.003	–
Nc1ncnc2c1c(C#Cc1c(F)cc(N3CCCC3=O)cc1F)cn2[C@@H]1O[C@H](CNS(N)(=O)=O)[C@@H](O)[C@H]1O [Reference Example 33, 4-Amino-5-[2-[2,6-difluoro-4-(2-oxopyrrolidin-1-yl)phenyl]ethynyl]-7-[(2R,3R,4S,5R)-3,4-dihydroxy-5-[(sulfamoylamino)methyl]tetrahydrofuran-2-yl]pyrrolo[2,3-d]pyrimidine]	≤ 0.003	37
Nc1ncnc2c1c(C#Cc1c(F)cc(N3CC(O)C3)cc1F)cn2[C@@H]1O[C@H](CNS(N)(=O)=O)[C@@H](O)[C@H]1O [Reference Example 39, 4-Amino-5-[2-[2,6-difluoro-4-(3-hydroxyazetidin-1-yl)phenyl]ethynyl]-7-[(2R,3R,4S,5R)-3,4-dihydroxy-5-[(sulfamoylamino)methyl]tetrahydrofuran-2-yl]pyrrolo[2,3-d]pyrimidine]	≤ 0.003	7.8
Nc1ncnc2c1c(C#Cc1c(F)cc(N3CCC[C@@H](O)C3)cc1F)cn2[C@@H]1O[C@H](CNS(N)(=O)=O)[C@@H](O)[C@H]1O [Reference Example 40, 4-Amino-5-[2-[2,6-difluoro-4-[(3R)-3-hydroxy-1-piperidyl]phenyl]ethynyl]-7-[(2R,3R,4S,5R)-3,4-dihydroxy-5-[(sulfamoylamino)methyl]tetrahydrofuran-2-yl]pyrrolo[2,3-d]pyrimidine]	≤ 0.003	19
Nc1ncnc2c1c(C#Cc1c(F)cc(N3CCC(C(=O)O)C3)cc1F)cn2[C@@H]1O[C@H](CNS(N)(=O)=O)[C@@H](O)[C@H]1O (stereo partly drawn) [Reference Example 41, 1-[4-[2-[4-amino-7-[(2R,3R,4S,5R)-3,4-dihydroxy-5-[(sulfamoylamino)methyl]tetrahydrofuran-2-yl]pyrrolo[2,3-d]pyrimidin-5-yl]ethynyl]-3,5-difluoro-phenyl]pyrrolidine-3-carboxylic Acid]	≤ 0.003	–
CCOc1cccc(F)c1C#Cc1cn([C@@H]2O[C@H](CNS(N)(=O)=O)[C@@H](O)[C@H]2O)c2ncnc(N)c12 [Reference Example 55, 4-Amino-7-[(2R,3R,4S,5R)-3,4-dihydroxy-5-[(sulfamoylamino)methyl]tetrahydrofuran-2-yl]-5-[2-(2-ethoxy-6-fluoro-phenyl)ethynyl]pyrrolo[2,3-d]pyrimidine]	≤ 0.003	–
COC(=O)c1cc(F)c(C#Cc2cn([C@@H]3O[C@H](CNS(N)(=O)=O)[C@@H](O)[C@H]3O)c3ncnc(N)c23)c(F)c1 [Reference Example 58, Methyl 4-[2-[4-amino-7-[(2R,3R,4S,5R)-3,4-dihydroxy-5-[(sulfamoylamino)methyl]tetrahydrofuran-2-yl]pyrrolo[2,3-d]pyrimidin-5-yl]ethynyl]-3,5-difluoro-benzoate]	≤ 0.003	–
Nc1ncnc2c1c(C#Cc1c(F)cc(N3CCS(=O)(=O)CC3)cc1F)cn2[C@@H]1O[C@H](CNS(N)(=O)=O)[C@@H](O)[C@H]1O [Reference Example 74, 4-[4-[2-[4-amino-7-[(2R,3R,4S,5R)-3,4-dihydroxy-5-[(sulfamoylamino)methyl]tetrahydrofuran-2-yl]pyrrolo[2,3-d]pyrimidin-5-yl]ethynyl]-3,5-difluoro-phenyl]-1,1-dioxo-1,4-thiazinane]	≤ 0.003	160
CCS(=O)(=O)c1cc(N2CC[C@@H](F)C2)cc(F)c1C#Cc1cn([C@@H]2O[C@H](CNS(N)(=O)=O)[C@@H](O)[C@H]2O)c2ncnc(N)c12 [Reference Example 75, 4-Amino-7-[(2R,3R,4S,5R)-3,4-dihydroxy-5-[(sulfamoylamino)methyl]tetrahydrofuran-2-yl]-5-[2-[2-ethylsulfonyl-6-fluoro-4-[(3R)-3-fluoropyrrolidin-1-yl]phenyl]ethynyl]pyrrolo[2,3-d]pyrimidine]	≤ 0.003	–

Further lines, results first:

IC50 [1] [µM]	IC50 [2] [nM]	Compound
≤ 0.003	–	COc1ccc(C#Cc2cn([C@@H]3C[C@H](CNS(N)(=O)=O)[C@@H](O)[C@H]3O)c3ncnc(N)c23)c(S(C)(=O)=O)c1 [Reference Example 113, 4-Amino-7-[(1R,2S,3R,4R)-2,3-dihydroxy-4-[(sulfamoylamino)methyl]cyclopentyl]-5-[2-(4-methoxy-2-methylsulfonyl-phenyl)ethynyl]pyrrolo[2,3-d]pyrimidine]
≤ 0.003	–	CCS(=O)(=O)c1cc(N2CCCC2)cc(F)c1C#Cc1cn([C@@H]2C[C@H](CNS(N)(=O)=O)[C@@H](O)[C@H]2O)c2ncnc(N)c12 [Reference Example 114, 4-Amino-7-[(1R,2S,3R,4R)-2,3-dihydroxy-4-[(sulfamoylamino)methyl]cyclopentyl]-5-[2-(2-ethylsulfonyl-6-fluoro-4-pyrrolidin-1-yl-phenyl)ethynyl]pyrrolo[2,3-d]pyrimidine]
≤ 0.003	2.1	CCOc1cccc(F)c1C#Cc1cn([C@@H]2C=C(CNS(N)(=O)=O)[C@@H](O)[C@H]2O)c2ncnc(N)c12 [Reference Example 129, 4-Amino-7-[(1R,4R,5S)-4,5-dihydroxy-3-[(sulfamoylamino)methyl]cyclopent-2-en-1-yl]-5-[2-(2-ethoxy-6-fluoro-phenyl)ethynyl]pyrrolo[2,3-d]pyrimidine]
≤ 0.003	–	Nc1ncnc2c1c(C#Cc1ccccc1)cn2[C@@H]1O[C@H](COS(N)(=O)=O)[C@@H](O)[C@H]1O [Reference Example 131, [(2R,3S,4R,5R)-5-[4-amino-5-(2-phenylethynyl)pyrrolo[2,3-d]pyrimidin-7-yl]-3,4-dihydroxy-tetrahydrofuran-2-yl]methyl sulfamate]
≤ 0.003	1.8	Nc1ncnc2c1c(C#Cc1c(F)cccc1F)cn2[C@@H]1O[C@H](COS(N)(=O)=O)[C@@H](O)[C@H]1O [Reference Example 132, [(2R,3S,4R,5R)-5-[4-Amino-5-[2-(2,6-difluorophenyl)ethynyl]pyrrolo[2,3-d]pyrimidin-7-yl]-3,4-dihydroxy-tetrahydrofuran-2-yl]methyl sulfamate]

— patent publication US20190010158A1, “ANTITUMOR EFFECT POTENTIATOR COMPRISING PYRROLOPYRIMIDINE COMPOUND” (TAIHO PHARMACEUTICAL CO., LTD, priority 2015, published 2019)
